What was measured:
[1] = target: Human Axl (Homo sapiens (Human), UniProt P30530, Q764R); test: Human AXL kinase assay (33P radiometric, KinaseProfiler); type: biochemical; conditions: 10 μM ATP
Method: (§1) Kinase activity and compound inhibition were investigated using the ^33P-Phosphoryl transfer radiometric kinase assay, performed using the KinaseProfiler™ service of Eurofins Pharma Discovery Services UK Limited. Dose-response experiments were performed using nine compound concentrations in a 96-well microtiter plate. For each assay, all compounds were prepared to a 50× final assay concentration (50 μM) in 100% DMSO, then diluted in a half-log series, with the final top concentration at 1 μM. This working stock of the compound was added to the assay well as the first component in the reaction, followed by the remaining components as detailed in the following assay protocols below. The positive control wells (100% kinase activity) contain all components of the reaction including 2% DMSO (control for solvent effects), except the compound of interest. Blank wells contain all components of the reaction, with the reference inhibitor, staurosporine. This reference compound was used to abolish kinase activity and generated the 0% kinase activity base-line. IC50 values were calculated by nonlinear regression analysis using the sigmoidal dose-response (variable slope) curve fit on XLFit version 5.3 (ID Business Solutions).
Human Axl (residues H473-A894 with Q764R, 161 nM) was incubated with 8 mM MOPS pH 7.0, 0.2 mM EDTA, 250 μM KKSRGDYMTMQIG (SEQ ID NO. 43), 10 mM magnesium acetate and 10 μM [γ-33P-ATP]. The reaction was initiated by the addition of the Mg/ATP mix. After incubation for 40 minutes at room temperature, the reaction was stopped by the addition of phosphoric acid to a concentration of 0.5%. A reaction aliquot of 10 μL was then spotted onto a P30 filtermat and washed four times for 4 minutes in 0.425% phosphoric acid and once in methanol prior to drying and scintillation counting. Incorporated ^33P was measured using the Wallac Microbeta scintillation counter (Perkin Elmer).

[2] = target: T1, Mer (Homo sapiens (Human), UniProt Q12866); test: Human Mer kinase assay (33P radiometric, KinaseProfiler); type: biochemical; conditions: 10 μM ATP
Method: as §1
Target sequence in this assay (Q12866 557-882): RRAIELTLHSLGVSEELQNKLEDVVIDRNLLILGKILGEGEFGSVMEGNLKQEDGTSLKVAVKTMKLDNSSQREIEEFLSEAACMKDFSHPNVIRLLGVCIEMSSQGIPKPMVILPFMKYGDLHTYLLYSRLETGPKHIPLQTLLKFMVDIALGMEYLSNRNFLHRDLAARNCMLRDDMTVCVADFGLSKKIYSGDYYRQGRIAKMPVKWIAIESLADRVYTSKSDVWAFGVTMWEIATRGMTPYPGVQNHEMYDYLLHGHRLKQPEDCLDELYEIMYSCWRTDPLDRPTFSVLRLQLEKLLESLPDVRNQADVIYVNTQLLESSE
Human Mer (residues R557-E882 with H628Q and R794A, 0.7 nM) was incubated with 8 mM MOPS pH 7.0, 0.2 mM EDTA, 30 mM NaCl, 250 μM GGMEDIYFEFMGGKKK (SEQ ID NO. 44), 10 mM magnesium acetate, and 10 μM [γ-^33P-ATP]. The reaction was initiated by the addition of the Mg/ATP mix. After incubation for 40 minutes at room temperature, the reaction was stopped by the addition of phosphoric acid to a concentration of 0.5%. A reaction aliquot of 10 μL was then spotted onto a P30 filtermat and washed four times for 4 minutes in 0.425% phosphoric acid and once in methanol prior to drying and scintillation counting. Incorporated ^33P was measured using the Wallac Microbeta scintillation counter (Perkin Elmer).

[3] = target: Met (Homo sapiens (Human), UniProt P08581); test: Human Met kinase assay (33P radiometric, KinaseProfiler); type: biochemical; conditions: 10 μM ATP, read-out: c-Met IC50
Method: as §1
Human Met (residues R974-S1390 with A1209G and V1290L, 3.4 nM) was incubated with 8 mM MOPS pH 7.0, 0.2 mM EDTA, 250 μM KKKGQEEEYVFIE (SEQ ID NO. 45), 1 mM sodium orthovanadate, 5 mM […], 10 mM magnesium acetate, and 10 μM [γ-33P-ATP]. The reaction was initiated by the addition of the Mg/ATP mix. After incubation for 40 minutes at room temperature, the reaction was stopped by the addition of phosphoric acid to a concentration of 0.5%. A reaction aliquot of 10 μL was then spotted onto a P30 filtermat and washed four times for 4 minutes in 0.425% phosphoric acid and once in methanol prior to drying and scintillation counting. Incorporated 33P was measured using the Wallac Microbeta scintillation counter (Perkin Elmer).

[4] = target: T1, Mer; test: Mer autophosphorylation ELISA in transient transfected 293A cells; type: cell-based; conditions: cellular, MERTK-transfected 293A cells, phospho-Mer ELISA
How it was run: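 293A cells transiently transfected with human MERTK DNA, then treated 1 h with 8-point compound dilutions in serum-free medium (0.3% DMSO). Phospho-Mer in lysates quantified by sandwich ELISA against phospho-Mer standard; normalised to DMSO (100%) and reference inhibitor (0%), IC50 from 4-parameter logistic fit.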
Target sequence in this assay (Q12866 21-999): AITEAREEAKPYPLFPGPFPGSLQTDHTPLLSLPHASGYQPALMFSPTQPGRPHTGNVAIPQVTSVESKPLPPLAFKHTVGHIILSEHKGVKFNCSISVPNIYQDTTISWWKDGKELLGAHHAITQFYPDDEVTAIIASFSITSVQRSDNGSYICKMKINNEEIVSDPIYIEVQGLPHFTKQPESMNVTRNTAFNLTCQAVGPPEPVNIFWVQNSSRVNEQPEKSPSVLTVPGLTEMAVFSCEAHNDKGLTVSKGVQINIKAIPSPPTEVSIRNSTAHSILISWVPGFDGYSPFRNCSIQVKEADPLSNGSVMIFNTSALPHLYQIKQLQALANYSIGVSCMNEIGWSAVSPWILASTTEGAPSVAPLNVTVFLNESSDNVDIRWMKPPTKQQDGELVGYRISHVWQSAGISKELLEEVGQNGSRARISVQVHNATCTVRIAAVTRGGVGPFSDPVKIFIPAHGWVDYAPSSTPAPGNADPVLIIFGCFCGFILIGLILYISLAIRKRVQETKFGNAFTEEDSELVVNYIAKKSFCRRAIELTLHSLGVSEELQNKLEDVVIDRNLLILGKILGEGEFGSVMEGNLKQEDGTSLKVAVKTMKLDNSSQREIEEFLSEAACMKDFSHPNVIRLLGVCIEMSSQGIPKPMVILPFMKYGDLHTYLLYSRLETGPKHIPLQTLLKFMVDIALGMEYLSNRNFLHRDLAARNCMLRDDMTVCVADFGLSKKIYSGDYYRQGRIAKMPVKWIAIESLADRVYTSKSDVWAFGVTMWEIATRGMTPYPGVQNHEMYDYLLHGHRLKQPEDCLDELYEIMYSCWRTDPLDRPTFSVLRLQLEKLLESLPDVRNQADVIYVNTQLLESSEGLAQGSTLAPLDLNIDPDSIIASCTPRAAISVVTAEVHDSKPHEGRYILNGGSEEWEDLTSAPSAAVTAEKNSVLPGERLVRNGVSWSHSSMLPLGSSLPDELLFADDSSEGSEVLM

Sequence of Human Axl (P30530 473-894 Q764R): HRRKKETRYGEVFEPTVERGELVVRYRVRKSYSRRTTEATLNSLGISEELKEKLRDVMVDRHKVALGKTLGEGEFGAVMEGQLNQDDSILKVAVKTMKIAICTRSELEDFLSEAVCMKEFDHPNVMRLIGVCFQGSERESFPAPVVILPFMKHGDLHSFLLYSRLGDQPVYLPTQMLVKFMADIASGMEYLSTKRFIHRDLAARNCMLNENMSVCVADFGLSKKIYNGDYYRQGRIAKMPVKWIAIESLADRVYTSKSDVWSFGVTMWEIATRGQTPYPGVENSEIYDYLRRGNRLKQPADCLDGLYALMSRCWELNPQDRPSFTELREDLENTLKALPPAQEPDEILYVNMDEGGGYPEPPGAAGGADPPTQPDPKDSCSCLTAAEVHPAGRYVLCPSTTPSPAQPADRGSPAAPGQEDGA

Row | IC50 [1] [nM] | IC50 [2] [nM] | IC50 [3] [nM] | IC50 [4] [nM] | SMILES
1 | ≤ 10 | ≤ 10 | ≤ 10 | – | COC(=O)c1cc2c(Oc3ccc(NC(=O)C4(C(=O)Nc5ccc(F)cc5)CC4)cn3)ccnc2cc1OC [Compound 10, Methyl 4-[5-[[1-[(4-fluorophenyl)carbamoyl]cyclopropanecarbonyl]-amino]pyridin-2-yl]oxy-7-methoxyquinoline-6-carboxylate]
2 | 10 to 100 | 10 to 100 | 10 to 100 | – | COc1cc2nccc(Oc3ccc(NC(=O)C4(C(=O)Nc5ccc(F)cc5)CC4)cn3)c2nc1OC [Compound 81, 1-N′-[6-[(6,7-Dimethoxy-1,5-naphthyridin-4-yl)oxy]pyridin-3-yl]-1-N-(4-fluorophenyl)cyclopropane-1,1-dicarboxamide]
3 | 10 to 100 | 10 to 100 | 10 to 100 | 100 to 300 | COc1cc2nccc(Oc3ncc(NC(=O)C4(C(=O)Nc5ccc(F)cc5)CC4)cc3Cl)c2nc1OC [Compound 80, 1-N′-[5-Chloro-6-[(6,7-dimethoxy-1,5-naphthyridin-4-yl)oxy]pyridin-3-yl]-1-N-(4-fluorophenyl)cyclopropane-1,1-dicarboxamide]
4 | ≤ 10 | ≤ 10 | ≤ 10 | 10 to 100 | COc1cc2nccc(Oc3ncc(NC(=O)C4(C(=O)Nc5ccc(F)cc5)CC4)cc3F)c2nc1OC [Compound 82, 1-N′-[6-[(6,7-Dimethoxy-1,5-naphthyridin-4-yl)oxy]-5-fluoropyridin-3-yl]-1-N-(4-fluorophenyl)cyclopropane-1,1-dicarboxamide]
5 | 10 to 100 | ≤ 10 | ≤ 10 | – | COc1cc2nccc(Oc3ccc(NC(=O)C4(C(=O)Nc5ccc(F)cc5)CC4)cn3)c2cc1C(N)=O [Compound 16, 1-N′-[6-(6-Carbamoyl-7-methoxyquinolin-4-yl)oxypyridin-3-yl]-1-N-(4-fluorophenyl)-cyclopropane-1,1-dicarboxamide]
6 | ≤ 10 | ≤ 10 | ≤ 10 | 10 to 100 | COc1cc2nccc(Oc3ncc(NC(=O)C4(C(=O)Nc5ccc(F)cc5)CC4)cc3Cl)c2cc1C(N)=O [Compound 18, 1-N′-[6-(6-Carbamoyl-7-methoxyquinolin-4-yl)oxy-5-chloropyridin-3-yl]-1-N-(4-fluorophenyl)cyclopropane-1,1-dicarboxamide]
7 | ≤ 10 | ≤ 10 | ≤ 10 | 10 to 100 | COc1cc2nccc(Oc3ccc(NC(=O)C4(C(=O)Nc5ccc(F)cc5)CC4)cn3)c2cc1-c1cn[nH]c1 [Compound 60, 1-N-(4-Fluorophenyl)-1-N′-[6-[7-methoxy-6-(1H-pyrazol-4-yl)quinolin-4-yl]oxypyridin-3-yl]cyclopropane-1,1-dicarboxamide]
8 | 10 to 100 | 10 to 100 | 10 to 100 | – | CNC(=O)c1cc2c(Oc3ccc(NC(=O)C4(C(=O)Nc5ccc(F)cc5)CC4)cn3)ccnc2cc1OC [Compound 17, 1-N-(4-Fluorophenyl)-1-N′-[6-[7-methoxy-6-(methylcarbamoyl)quinolin-4-yl]oxypyridin-3-yl]cyclopropane-1,1-dicarboxamide]
9 | ≤ 10 | ≤ 10 | ≤ 10 | 10 to 100 | COC(=O)c1cc2c(Oc3ncc(NC(=O)C4(C(=O)Nc5ccc(F)cc5)CC4)cc3Cl)ccnc2cc1OC [Compound 11, Methyl 4-[3-chloro-5-[[1-[(4-fluorophenyl)carbamoyl]cyclopropanecarbonyl]-amino]pyridin-2-yl]oxy-7-methoxyquinoline-6-carboxylate]

— patent publication US11673897B2, “Compounds for the treatment of kinase-dependent disorders” (Exelixis, Inc., priority 2018, dated 2023)
